Target: T1, recombinant IGF2BP3 protein (Homo sapiens, UniProt O00425)
T1 construct: recombinant, amine-coupled to CM5 chip
Test: SPR (Biacore T200, CM5 chip, steady-state fit)
Type: binding

T1 sequence (O00425 whole entry): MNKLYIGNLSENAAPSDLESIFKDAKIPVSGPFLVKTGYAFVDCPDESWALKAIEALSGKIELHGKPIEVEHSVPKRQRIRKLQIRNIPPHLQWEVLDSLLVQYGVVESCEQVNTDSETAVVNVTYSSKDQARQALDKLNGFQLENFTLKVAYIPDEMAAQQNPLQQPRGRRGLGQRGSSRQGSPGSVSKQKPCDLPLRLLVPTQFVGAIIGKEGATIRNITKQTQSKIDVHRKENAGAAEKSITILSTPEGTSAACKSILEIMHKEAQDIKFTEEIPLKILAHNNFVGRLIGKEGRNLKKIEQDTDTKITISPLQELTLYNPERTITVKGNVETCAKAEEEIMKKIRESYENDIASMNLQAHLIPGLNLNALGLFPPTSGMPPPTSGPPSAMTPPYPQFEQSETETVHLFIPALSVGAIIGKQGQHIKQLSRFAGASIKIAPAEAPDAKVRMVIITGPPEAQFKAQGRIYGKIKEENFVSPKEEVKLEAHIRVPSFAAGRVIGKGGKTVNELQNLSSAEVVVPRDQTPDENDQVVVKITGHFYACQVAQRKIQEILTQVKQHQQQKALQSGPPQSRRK

## CC1=C(O)C(=O)C=C2C1=CC=C1[C@@]2(C)CC[C@@]2(C)[C@@H]3C[C@](C)(C(=O)O)CC[C@]3(C)CC[C@]12C [celastrol]
  Kd: 1650 nM
